Experimental data taken from PubChem BioAssay AID2060884 (Molecular Pharmacology Branch, DTP, NCI, 2025).

Tested on: NCI-H929 complex spheroids, viability % test/control
Experiment: Anticancer human tumor NCI-H929 cell line growth inhibition [RAS];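 also: compound exposure lasted seven days before viability was read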;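 as to viability, T/C: 100% = DMSO vehicle control viability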
Settings: for IC50: curve of first compound; for viability, T/C: stronger effect = lower value; active = viability on the fitted dose curve at most 10% of control; inactive = the rest
Procedure, shortened: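 Multi-cell-type spheroids: tumor cells plus HUVEC endothelial cells and mesenchymal stem cells. RAS-pathway inhibitors were combined with targeted agents, each dosed in half-log steps down from clinical Cmax, or from 10 microM when Cmax was unknown.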

[1] = second compound 0.000949 µM, first compound 0.000949 µM
[2] = second compound 0.000949 µM, first compound 0.003 µM
[3] = second compound 0.000949 µM, first compound 0.00949 µM
[4] = second compound 0.000949 µM, first compound 0.03 µM
[5] = second compound 0.000949 µM, first compound 0.0949 µM
[6] = second compound 0.000949 µM, first compound 0.3 µM
[7] = second compound 0.003 µM, first compound 0.000949 µM
[8] = second compound 0.003 µM, first compound 0.003 µM
[9] = second compound 0.003 µM, first compound 0.00949 µM
[10] = second compound 0.003 µM, first compound 0.03 µM
[11] = second compound 0.003 µM, first compound 0.0949 µM
[12] = second compound 0.003 µM, first compound 0.3 µM
[13] = second compound 0.00949 µM, first compound 0.000949 µM
[14] = second compound 0.00949 µM, first compound 0.003 µM
[15] = second compound 0.00949 µM, first compound 0.00949 µM
[16] = second compound 0.00949 µM, first compound 0.03 µM
[17] = second compound 0.00949 µM, first compound 0.0949 µM
[18] = second compound 0.00949 µM, first compound 0.3 µM
[19] = second compound 0.03 µM, first compound 0.000949 µM
[20] = second compound 0.03 µM, first compound 0.003 µM
[21] = second compound 0.03 µM, first compound 0.00949 µM
[22] = second compound 0.03 µM, first compound 0.03 µM
[23] = second compound 0.03 µM, first compound 0.0949 µM
[24] = second compound 0.03 µM, first compound 0.3 µM
[25] = second compound 0.0949 µM, first compound 0.000949 µM
[26] = second compound 0.0949 µM, first compound 0.003 µM
[27] = second compound 0.0949 µM, first compound 0.00949 µM
[28] = second compound 0.0949 µM, first compound 0.03 µM
[29] = second compound 0.0949 µM, first compound 0.0949 µM
[30] = second compound 0.0949 µM, first compound 0.3 µM
[31] = second compound 0.3 µM, first compound 0.000949 µM
[32] = second compound 0.3 µM, first compound 0.003 µM
[33] = second compound 0.3 µM, first compound 0.00949 µM
[34] = second compound 0.3 µM, first compound 0.03 µM
[35] = second compound 0.3 µM, first compound 0.0949 µM
[36] = second compound 0.3 µM, first compound 0.3 µM

CC1(C)CCC(Nc2ncc(C(F)(F)F)c(-c3c[nH]c4c(P(C)(C)=O)c(C#N)ccc34)n2)CN1 (stereo unspecified) + CCn1c(-c2cccnc2C(C)OC)c2c3cc(ccc31)N1CCOC(CC(NC(=O)C(C(C)C)N(C)C(=O)C3(F)CCN(C(=O)C#CC(C)(C)N(C)C)CC3)C(=O)N3CCCC(N3)C(=O)OCC(C)(C)C2)C1
1.96 nM: IC50 (second compound 0.000949 µM)
inactive: viability, T/C [1] 101% | viability, T/C [2] 20.1% | viability, T/C [7] 94.2% | viability, T/C [8] 17.3% | viability, T/C [13] 93.6% | viability, T/C [14] 17% | viability, T/C [19] 96.1% | viability, T/C [20] 12.4% | viability, T/C [25] 88.9% | viability, T/C [31] 76.2%
active: viability, T/C [3] 4.36% | viability, T/C [4] 3.1% | viability, T/C [5] 2.69% | viability, T/C [6] 2.22% | viability, T/C [9] 4.24% | viability, T/C [10] 3.6% | viability, T/C [11] 2.6% | viability, T/C [12] 2.53% | viability, T/C [15] 4.24% | viability, T/C [16] 2.85% | viability, T/C [17] 2.94% | viability, T/C [18] 2.08% | viability, T/C [21] 3.38% | viability, T/C [22] 2.65% | viability, T/C [23] 2.58% | viability, T/C [24] 1.92% | viability, T/C [26] 9.6% | viability, T/C [27] 2.64% | viability, T/C [28] 2.41% | viability, T/C [29] 2.02% | viability, T/C [30] 1.77% | viability, T/C [32] 5.86% | viability, T/C [33] 2.85% | viability, T/C [34] 2.43% | viability, T/C [35] 1.88% | viability, T/C [36] 1.61%
1.46 nM: IC50 (second compound 0.3 µM)
1.84 nM: IC50 (second compound 0.003 µM)
1.67 nM: IC50 (second compound 0.0949 µM)
1.79 nM: IC50 (second compound 0.03 µM)
1.83 nM: IC50 (second compound 0.00949 µM)

CCc1c2c(nc3ccc(O)cc13)-c1cc3c(c(=O)n1C2)COC(=O)[C@]3(O)CC + CCn1c(-c2cccnc2C(C)OC)c2c3cc(ccc31)N1CCOC(CC(NC(=O)C(C(C)C)N(C)C(=O)C3(F)CCN(C(=O)C#CC(C)(C)N(C)C)CC3)C(=O)N3CCCC(N3)C(=O)OCC(C)(C)C2)C1
active: viability, T/C [2] 2.65% | viability, T/C [3] 1.03% | viability, T/C [4] 1.2% | viability, T/C [5] 1.15% | viability, T/C [6] 0.54% | viability, T/C [8] 3.29% | viability, T/C [9] 1.02% | viability, T/C [10] 1.1% | viability, T/C [11] 1.07% | viability, T/C [12] 0.54% | viability, T/C [14] 2.82% | viability, T/C [15] 0.87% | viability, T/C [16] 1.06% | viability, T/C [17] 1.05% | viability, T/C [18] 0.47% | viability, T/C [20] 1.48% | viability, T/C [21] 0.74% | viability, T/C [22] 0.96% | viability, T/C [23] 0.84% | viability, T/C [24] 0.42% | viability, T/C [26] 1.38% | viability, T/C [27] 0.98% | viability, T/C [28] 0.71% | viability, T/C [29] 0.87% | viability, T/C [30] 0.47% | viability, T/C [32] 1.54% | viability, T/C [33] 0.75% | viability, T/C [34] 0.83% | viability, T/C [35] 0.84% | viability, T/C [36] 0.44%
1.4 nM: IC50 (second compound 0.03 µM)
inactive: viability, T/C [1] 72.7% | viability, T/C [7] 77% | viability, T/C [13] 70.4% | viability, T/C [19] 74.8% | viability, T/C [25] 63.8% | viability, T/C [31] 48.2%
1.38 nM: IC50 (second compound 0.000949 µM)
1.45 nM: IC50 (second compound 0.003 µM)
< 0.949 nM: IC50 (second compound 0.3 µM)
1.22 nM: IC50 (second compound 0.0949 µM)
1.34 nM: IC50 (second compound 0.00949 µM)

CCc1c2c(nc3ccc(O)cc13)-c1cc3c(c(=O)n1C2)COC(=O)[C@]3(O)CC + C#Cc1c(F)ccc2cc(O)cc(-c3ncc4c(N5CC6CCC(C5)N6)nc(OCC56CCCN5CC(F)C6)nc4c3F)c12
1.7 nM: IC50 (second compound 10 µM)
1.88 nM: IC50 (second compound 0.0316 µM)
1.83 nM: IC50 (second compound 0.316 µM) | IC50 (second compound 3.16 µM)
active: viability, T/C (second compound 0.0316 µM, first compound 0.00949 µM) 1.08% | viability, T/C (second compound 0.0316 µM, first compound 0.03 µM) 1.06% | viability, T/C (second compound 0.0316 µM, first compound 0.0949 µM) 2.09% | viability, T/C (second compound 0.0316 µM, first compound 0.3 µM) 1.3% | viability, T/C (second compound 0.1 µM, first compound 0.00949 µM) 1.39% | viability, T/C (second compound 0.1 µM, first compound 0.03 µM) 3.06% | viability, T/C (second compound 0.1 µM, first compound 0.0949 µM) 2.48% | viability, T/C (second compound 0.1 µM, first compound 0.3 µM) 0.71% | viability, T/C (second compound 0.316 µM, first compound 0.00949 µM) 1.36% | viability, T/C (second compound 0.316 µM, first compound 0.03 µM) 2.4% | viability, T/C (second compound 0.316 µM, first compound 0.0949 µM) 1.35% | viability, T/C (second compound 0.316 µM, first compound 0.3 µM) 1.02% | viability, T/C (second compound 1 µM, first compound 0.00949 µM) 1.18% | viability, T/C (second compound 1 µM, first compound 0.03 µM) 1.37% | viability, T/C (second compound 1 µM, first compound 0.0949 µM) 0.94% | viability, T/C (second compound 1 µM, first compound 0.3 µM) 0.76% | viability, T/C (second compound 3.16 µM, first compound 0.003 µM) 9.19% | viability, T/C (second compound 3.16 µM, first compound 0.00949 µM) 2.65% | viability, T/C (second compound 3.16 µM, first compound 0.03 µM) 1.69% | viability, T/C (second compound 3.16 µM, first compound 0.0949 µM) 1.26% | viability, T/C (second compound 3.16 µM, first compound 0.3 µM) 0.49% | viability, T/C (second compound 10 µM, first compound 0.003 µM) 9.27% | viability, T/C (second compound 10 µM, first compound 0.00949 µM) 1.7% | viability, T/C (second compound 10 µM, first compound 0.03 µM) 1.05% | viability, T/C (second compound 10 µM, first compound 0.0949 µM) 1.19% | viability, T/C (second compound 10 µM, first compound 0.3 µM) 0.41%
inactive: viability, T/C (second compound 0.0316 µM, first compound 0.000949 µM) 107% | viability, T/C (second compound 0.0316 µM, first compound 0.003 µM) 11.1% | viability, T/C (second compound 0.1 µM, first compound 0.000949 µM) 103% | viability, T/C (second compound 0.1 µM, first compound 0.003 µM) 19% | viability, T/C (second compound 0.316 µM, first compound 0.000949 µM) 103% | viability, T/C (second compound 0.316 µM, first compound 0.003 µM) 10.5% | viability, T/C (second compound 1 µM, first compound 0.000949 µM) 104% | viability, T/C (second compound 1 µM, first compound 0.003 µM) 11.1% | viability, T/C (second compound 3.16 µM, first compound 0.000949 µM) 104% | viability, T/C (second compound 10 µM, first compound 0.000949 µM) 92%
1.85 nM: IC50 (second compound 1 µM)
1.97 nM: IC50 (second compound 0.1 µM)
